Read-outs that look alike come from different tables or passages of the source.

On the set-up of data set [1]: species or system humans. The conditions noted are these: for ALfemale (allowable limit): adult females, 58 kg body weight; for ALmale (allowable limit): adult males, 70 kg body weight. How it is done: Toxicological risk assessment of five previously characterized byproducts, per Sayoun, J; Crepet A; Gouanve F; Keromnes L; Espuche E. 2017. “Diffusion mechanism of byproducts resulting from the peroxide crosslinking of polyethylene.” J. Appl. Polym. Sci. 44525. doi: 10.1002/APP.44525, was carried out following ISO 10993-17:2002. Quantification was based on the maximum amount of chemical exposures from the anticipated maximum number of implants a patient may receive (in this case, 4 implants). An exhaustive literature search for toxicity data was conducted specific to each chemical of interest. This was accomplished via ToxPlanet (a federated search engine that extracts the content from 500+ websites). Biocompatibility endpoints were determined based on ISO 10993-1:2018 and recent United States Food and Drug Administration (US Food and Drug Administration 2016a. “Use of International Standard ISO-10993, ‘Biological evaluation of medical devices—Part 1: Evaluation and testing within a risk management process’: Guidance for Industry and Food and Drug Administration Staff.” Center for Devices and Radiological Health (CDRH), 68p). These endpoints include chronic toxicity, reproductive and developmental toxicity, genotoxicity, carcinogenicity, and sensitization.
The in silico methods utilized an expert-rule-based program (Toxtree version 3.1.0; Ideaconsult Ltd., 2018) and the statistics-based program VEGA version 1.2.8 and Benfenati, E; Manganaro, A; Gini, G. 2013. “VEGA-QSAR: AI inside a platform for predictive toxicology.” In CEUR Workshop Proceedings, Volume 1107: Proceedings of The Second Workshop on Popularize Artificial Intelligence, (PAI 2013), Turin, Italy), consistent with the International Council for Harmonisation of Technical Requirements for Pharmaceuticals for Human Use (ICH) and US FDA guidelines for the assessment of DNA reactive impurities in pharmaceuticals (M7 guidelines; International Council for Harmonisation of Technical Requirements for Pharmaceuticals for Human Use (ICH). 2017a. “ICH Harmonised Guideline: Assessment and Control of DNA Reactive (Mutagenic) Impurities in Pharmaceuticals to Limit Potential Carcinogenic Risk M7(R1) (Current Step 4 Version); US Food and Drug Administration (US FDA 2018. “Guidance for Industry: M7(R1) Assessment and Control of DNA Reactive (Mutagenic) Impurities in Pharmaceuticals to Limit Potential Carcinogenic Risk.” Center for Drug Evaluation and Research (CDER), Center for Biologics Evaluation and Research (CBER)).
The allowable limit (AL) was calculated using the no-observed-adverse-effect level (NOAEL) limits ascertained from the literature search and in silico methods described above. The NOAELs were then adjusted by the average body weight (BW) for adult males (70 kg) and adult females (58 kg). Following the recommendations of ISO 10993-17 and ICH Q3C(R7) (International Organization for Standardization (ISO). 2002. “ISO 10993-17: Biological Evaluation of Medical Devices—Part 17: Establishment of Allowable Limits for Leachable Substances.” ISO 10993-17: 2002; International Council for Harmonisation of Technical Requirements for Pharmaceuticals for Human Use (ICH). 2018. “ICH Harmonised Guideline: Impurities: Guideline for Residual Solvents Q3C(R7) (Current Step 4 Version).”), the values were then adjusted by a series of uncertainty factors (UFs). UF1=10 to account for interindividual variation; UF2=5 for extrapolation of effects from rats to humans; UF3=10 to account for extrapolation from an oral exposure study to systemic exposure risk associated with an implanted device; UF4=5 to account for extrapolation of results from a 90-day toxicity study in rodents to lifetime exposure associated with a permanent implant; and UF5=10 to account for extrapolation of a lowest-observed-adverse-effect level (LOAEL) to a NOAEL, if needed.

The conditions of data set [2]: cited from earlier work.

As for `C=C(CC(C)(C)c1ccccc1)c1ccccc1` [2,4-Diphenyl-4-methyl-1-pentene], in data set [1], the “ALfemale (allowable limit)” value amounted to 232 µg/day and the “ALmale (allowable limit)” value stood at 280 µg/day.

Turning to `CC(=O)c1ccccc1` [Acetophenone], in data set [1], the “ALfemale (allowable limit)” value is given as 9,810 μg/day and the “ALmale (allowable limit)” value was 11,800 μg/day.

On to `CC(C)(O)c1ccccc1` [Cumyl alcohol], for which, in data set [1], the “ALfemale (allowable limit)” value was 1,800 μg/day and the “ALmale (allowable limit)” value is 1,800 μg/day.

For the compound `CC(C)(OOC(C)(C)c1ccccc1)c1ccccc1` [Dicumyl peroxide], the half-life temperature in data set [2] (for 1 minute) is 120 °C; in data set [2] (for 1 hour), 80 °C; in data set [2] (for 10 hours), 61 °C. Further, the “ALfemale (allowable limit)” value in data set [1] is given as 1,860 μg/day. Further, the “ALmale (allowable limit)” value in data set [1] is given as 2,240 μg/day.

The values are drawn from patent publication US11970600B2, “Di-cumyl peroxide crosslinking of UHMWPE” (priority 2021, dated 2024).
